# Results as given in patent publication US20190010158A1, “ANTITUMOR EFFECT POTENTIATOR COMPRISING PYRROLOPYRIMIDINE COMPOUND” (TAIHO PHARMACEUTICAL CO., LTD, priority 2015, published 2019).
# pIC50: −log10 of the molar value. Where “and” joins values, the source holds several entries; their conditions need not be identical. Identical values can stand only once. Like-named read-outs stand apart in the source and are kept apart here.
# How the values were obtained:
# [1] = test system: tumor cell lines shown in Table 24; assay: Example 2: combined use with tyrosine kinase inhibitor, cell growth inhibition test (IC50 ratio, CI); type: cell-based; conditions: for Comprehensive Evaluation: combined use with Reference Example Compound 55
# [2] = test system: human acute T lymphoblastic leukemia CCRF-CEM cell lines; assay: Cell growth inhibition 1 (CellTiter-Glo); type: cell-based; conditions: culture with test compound 72 hours
# [3] = SNU-16, Reference Example Compound 55:other compound 1:3.3, at ED50
# [4] = SNU-16, Reference Example Compound 55:other compound 1:10, at ED50
smiles,measurement,setting,value
Cc1cc(Nc2ncnc3ccc(NC4=NC(C)(C)CO4)cc23)ccc1Oc1ccn2ncnc2c1 [ARRY380],CI,"[1]; A431, Reference Example Compound 55:other compound 1:36 (only ratio calculated), at ED50",0.34
same,Comprehensive Evaluation,[1]; A431,Synergism (0.3-0.7)
"CN(C)C/C=C/C(=O)Nc1cc2c(Nc3ccc(F)c(Cl)c3)ncnc2cc1O[C@H]1CCOC1 [Afatinib, afatinib]",CI,"[1]; A549, Reference Example Compound 55:other compound 1:1.7, at ED50",0.70
same,CI,"[1]; A549, Reference Example Compound 55:other compound 1:5, at ED50",0.48
same,Comprehensive Evaluation,[1]; A549,Synergism (0.3-0.7)
"CCc1cc2c(cc1N1CCC(N3CCOCC3)CC1)C(C)(C)c1[nH]c3cc(C#N)ccc3c1C2=O [Alectinib, alectinib]",CI,"[1]; MM.1S, Reference Example Compound 55:other compound 1:3000, at ED50",0.58
same,CI,"[1]; MM.1S, Reference Example Compound 55:other compound 1:9000, at ED50",0.59
same,Comprehensive Evaluation,[1]; MM.1S,Synergism (0.3-0.7)
"CC1(COc2ccc3c(c2)ncn3-c2ccc3cccc(N4CCC(N)CC4)c3n2)COC1 [Crenolanib, crenolanib]",CI,"[1]; MV4-11, Reference Example Compound 55:other compound 1:3.7, at ED50",0.91
same,CI,"[1]; MV4-11, Reference Example Compound 55:other compound 1:11, at ED50",0.83
same,Comprehensive Evaluation,[1]; MV4-11,Additive (0.9-1.10)
"C[C@@H](Oc1cc(-c2cnn(C3CCNCC3)c2)cnc1N)c1c(Cl)ccc(F)c1Cl [Crizotinib, crizotinib]",CI,"[1]; MM.1S, Reference Example Compound 55:other compound 1:37, at ED50",0.87
same,CI,"[1]; MM.1S, Reference Example Compound 55:other compound 1:111, at ED50",0.74
same,Comprehensive Evaluation,[1]; MM.1S,Slight
"Cc1nc(Nc2ncc(C(=O)Nc3c(C)cccc3Cl)s2)cc(N2CCN(CCO)CC2)n1 [Dasatinib, dasatinib]",CI,"[1]; HCT116, Reference Example Compound 55:other compound 1:300, at ED50",0.83
same,CI,"[1]; HCT116, Reference Example Compound 55:other compound 1:900, at ED50",0.96
same,Comprehensive Evaluation,[1]; HCT116,Additive (0.9-1.10)
"C#Cc1cccc(Nc2ncnc3cc(OCCOC)c(OCCOC)cc23)c1 [Erlotinib, erlotinib]",CI,[1],0.45
same,CI,"[1]; A549, Reference Example Compound 55:other compound 1:10, at ED50",0.54
same,Comprehensive Evaluation,[1]; A549,Synergism (0.3-0.7)
"COc1cc2ncnc(Nc3ccc(F)c(Cl)c3)c2cc1OCCCN1CCOCC1 [Gefitinib, gefitinib]",CI,"[1]; A431, Reference Example Compound 55:other compound 1:5, at ED50",0.33
same,CI,"[1]; A431, Reference Example Compound 55:other compound 1:15, at ED50",0.32
same,Comprehensive Evaluation,[1]; A431,Synergism (0.3-0.7)
"Cc1ccc(NC(=O)c2ccc(CN3CCN(C)CC3)cc2)cc1Nc1nccc(-c2cccnc2)n1 [Imatinib, imatinib]",CI,[1],0.31 and 0.35
same,Comprehensive Evaluation,[1]; A549,Synergism (0.3-0.7)
"CS(=O)(=O)CCNCc1ccc(-c2ccc3ncnc(Nc4ccc(OCc5cccc(F)c5)c(Cl)c4)c3c2)o1 [Lapatinib, lapatinib]",CI,"[1]; A431, Reference Example Compound 55:other compound 1:10, at ED50",0.15
same,CI,"[1]; A431, Reference Example Compound 55:other compound 1:30, at ED50",0.19
same,Comprehensive Evaluation,[1]; A431,Strong
"COc1cc2nccc(Oc3ccc(NC(=O)NC4CC4)c(Cl)c3)c2cc1C(N)=O [Lenvatinib, lenvatinib]",CI,[1]; [3],0.44
same,CI,[1]; [4],0.63
same,Comprehensive Evaluation,[1]; SNU-16,Synergism (0.3-0.7)
"Cc1ccc(NC(=O)c2ccc(CN3CCN(C)CC3)cc2)cc1Nc1nc(-c2cccnc2)cs1 [Masitinib, masitinib]",CI,"[1]; MOLT-4, Reference Example Compound 55:other compound 1:33, at ED50",0.31
same,CI,"[1]; MOLT-4, Reference Example Compound 55:other compound 1:100, at ED50",0.20
same,Comprehensive Evaluation,[1]; MOLT-4,Synergism (0.3-0.7)
"C=CC(=O)Nc1cc(Nc2nccc(-c3cn(C)c4ccccc34)n2)c(OC)cc1N(C)CCN(C)C [Osimertinib, osimertinib]",CI,"[1]; NCI-H1975, Reference Example Compound 55:other compound 1:0.01, at ED50",0.96
same,CI,"[1]; NCI-H1975, Reference Example Compound 55:other compound 1:0.03, at ED50",0.99
same,Comprehensive Evaluation,[1]; NCI-H1975,Additive (0.9-1.10)
"Cc1ccc(Nc2nccc(N(C)c3ccc4c(C)n(C)nc4c3)n2)cc1S(N)(=O)=O [Pazopanib, pazopanib]",CI,"[1]; SNU-16, Reference Example Compound 55:other compound 1:30, at ED50",0.71
same,CI,"[1]; SNU-16, Reference Example Compound 55:other compound 1:90, at ED50",0.52
"Cc1ccc(C(=O)Nc2ccc(CN3CCN(C)CC3)c(C(F)(F)F)c2)cc1C#Cc1cnc2cccnn12 [Ponatinib, ponatinib]",CI,[1],0.46 and 0.36
"CC(C)(C)c1cc(NC(=O)Nc2ccc(-c3cn4c(n3)sc3cc(OCCN5CCOCC5)ccc34)cc2)no1 [Quizartinib, quizartinib]",CI,"[1]; MOLT-4, Reference Example Compound 55:other compound 1:111, at ED50",0.39
same,CI,"[1]; MOLT-4, Reference Example Compound 55:other compound 1:333, at ED50",0.44
same,Comprehensive Evaluation,[1]; MOLT-4,Synergism (0.3-0.7)
"Nc1ncnc2c1c(C#CCc1c(F)cccc1F)cn2[C@@H]1O[C@H](CNS(N)(=O)=O)[C@@H](O)[C@H]1O [Reference Example 31, 4-Amino-5-[3-(2,6-difluorophenyl)prop-1-ynyl]-7-[(2R,3R,4S,5R)-3,4-dihydroxy-5-[(sulfamoylamino)methyl]tetrahydrofuran-2-yl]pyrrolo[2,3-d]pyrimidine]",pIC50,[2],6.22
"Nc1ncnc2c1c(C#Cc1c(F)cc(NCCO)cc1F)cn2[C@@H]1O[C@H](CNS(N)(=O)=O)[C@@H](O)[C@H]1O [Reference Example 32, 4-Amino-5-[2-[2,6-difluoro-4-(2-hydroxyethylamino)phenyl]ethynyl]-7-[(2R,3R,4S,5R)-3,4-dihydroxy-5-[(sulfamoylamino)methyl]tetrahydrofuran-2-yl]pyrrolo[2,3-d]pyrimidine]",pIC50,[2],5.60
"CCOc1cc(N2CCOCC2)cc(F)c1C#Cc1cn([C@@H]2O[C@H](CNS(N)(=O)=O)[C@@H](O)[C@H]2O)c2ncnc(N)c12 [Reference Example 34, 4-[4-[2-[4-Amino-7-[(2R,3R,4S,5R)-3,4-dihydroxy-5-[(sulfamoylamino)methyl]tetrahydrofuran-2-yl]pyrrolo[2,3-d]pyrimidin-5-yl]ethynyl]-3-ethoxy-5-fluoro-phenyl]morpholine]",pIC50,[2],8.21
"CCOc1cc(F)cc(F)c1C#Cc1cn([C@@H]2O[C@H](CNS(N)(=O)=O)[C@@H](O)[C@H]2O)c2ncnc(N)c12 [Reference Example 35, 4-Amino-7-[(2R,3R,4S,5R)-3,4-dihydroxy-5-[(sulfamoylamino)methyl]tetrahydrofuran-2-yl]-5-[2-(2-ethoxy-4,6-difluoro-phenyl)ethynyl]pyrrolo[2,3-d]pyrimidine]",pIC50,[2],8.70
"Nc1ncnc2c1c(C#CCc1ccccc1F)cn2[C@@H]1O[C@H](CNS(N)(=O)=O)[C@@H](O)[C@H]1O [Reference Example 36, 4-Amino-7-[(2R,3R,4S,5R)-3,4-dihydroxy-5-[(sulfamoylamino)methyl]tetrahydrofuran-2-yl]-5-[3-(2-fluorophenyl)prop-1-ynyl]pyrrolo[2,3-d]pyrimidine]",pIC50,[2],6.60
"Nc1ncnc2c1c(C#Cc1c(F)cc(N3CCSCC3)cc1F)cn2[C@@H]1O[C@H](CNS(N)(=O)=O)[C@@H](O)[C@H]1O [Reference Example 37, 4-[4-[2-[4-Amino-7-[(2R,3R,4S,5R)-3,4-dihydroxy-5-[(sulfamoylamino)methyl]tetrahydrofuran-2-yl]pyrrolo[2,3-d]pyrimidin-5-yl]ethynyl]-3,5-difluoro-phenyl]thiomorpholine]",pIC50,[2],8.22
"Nc1ncnc2c1c(C#Cc1c(F)cc(N3CCCC(O)C3)cc1F)cn2[C@@H]1O[C@H](CNS(N)(=O)=O)[C@@H](O)[C@H]1O (stereo partly drawn) [Reference Example 38, 4-Amino-5-[2-[2,6-difluoro-4-(3-hydroxy-1-piperidyl)phenyl]ethynyl]-7-[(2R,3R,4S,5R)-3,4-dihydroxy-5-[(sulfamoylamino)methyl]tetrahydrofuran-2-yl]pyrrolo[2,3-d]pyrimidine]",pIC50,[2],7.85
"Nc1ncnc2c1c(C#Cc1c(F)cc(N3CCC3)cc1F)cn2[C@@H]1O[C@H](CNS(N)(=O)=O)[C@@H](O)[C@H]1O [Reference Example 43, 4-amino-5-[2-[4-(azetidin-1-yl)-2,6-difluoro-phenyl]ethynyl]-7-[(2R,3R,4S,5R)-3,4-dihydroxy-5-[(sulfamoylamino)methyl]tetrahydrofuran-2-yl]pyrrolo[2,3-d]pyrimidine]",pIC50,[2],8.57
"CCCOc1cccc(F)c1C#Cc1cn([C@@H]2O[C@H](CNS(N)(=O)=O)[C@@H](O)[C@H]2O)c2ncnc(N)c12 [Reference Example 60, 4-Amino-7-[(2R,3R,4S,5R)-3,4-dihydroxy-5-[(sulfamoylamino)methyl]tetrahydrofuran-2-yl]-5-[2-(2-fluoro-6-propoxy-phenyl)ethynyl]pyrrolo[2,3-d]pyrimidine]",pIC50,[2],8.29
"CCSc1cccc(F)c1C#Cc1cn([C@@H]2O[C@H](CNS(N)(=O)=O)[C@@H](O)[C@H]2O)c2ncnc(N)c12 [Reference Example 66, 4-Amino-7-[(2R,3R,4S,5R)-3,4-dihydroxy-5-[(sulfamoylamino)methyl]tetrahydrofuran-2-yl]-5-[2-(2-ethylsulfanyl-6-fluoro-phenyl)ethynyl]pyrrolo[2,3-d]pyrimidine]",pIC50,[2],8.37
"CNC(=O)c1cc(Oc2ccc(NC(=O)Nc3ccc(Cl)c(C(F)(F)F)c3)c(F)c2)ccn1 [Regorafenib, regorafenib]",CI,"[1]; SNU-16, Reference Example Compound 55:other compound 1:15, at ED50",0.88
same,CI,"[1]; SNU-16, Reference Example Compound 55:other compound 1:45, at ED50",1.06
same,Comprehensive Evaluation,[1]; SNU-16,Additive (0.9-1.10)
"N#CC[C@H](C1CCCC1)n1cc(-c2ncnc3[nH]ccc23)cn1 [Ruxolitinib, ruxolitinib]",CI,[1],0.82
"CCN(CC)CCNC(=O)c1c(C)[nH]c(/C=C2\C(=O)Nc3ccc(F)cc32)c1C [Sunitinib, sunitinib]",CI,[1]; [3],0.86
same,CI,[1]; [4],0.91
same,Comprehensive Evaluation,[1]; SNU-16,Additive (0.9-1.10)
